In the experiment the test system is BDF1 mice, L1210/MTX-resistant leukemia ip, survival T/C. Put plainly: NCI In Vivo Anticancer Drug Screen. Data for tumor model L1210 Leukemia resistant to Methotrexate; NSC 740 (intraperitoneal) in B6D2F1 (BDF1) mice. Particulars: endpoint: mean survival time, higher = longer survival. The protocol: The antitumor activity of compounds was measured in mice bearing transplantable tumors. Survival or tumor size were measured and the results are expressed as the measurement made in the treated group (T) divided by the measurement made in the vehicle treated control group (C). The tumor model used in this assay is L1210 Leukemia resistant to Methotrexate; NSC 740 (intraperitoneal) in B6D2F1 (BDF1) mice

Where [1] appears, read: dose: 25.0 mg/kg/injection, schedule: Q01DX010 (ip), vehicle: saline.
[2] abbreviates: dose: 4.0 mg/kg/injection, schedule: Q01DX010 (ip), vehicle: saline.
The mark [3] stands for this setting: dose: 1.6 mg/kg/injection, schedule: Q01DX Z (ip), vehicle: methylcellulose (MC).
Setting [4] is: dose: 3.2 mg/kg/injection, schedule: Q01DX Z (ip), vehicle: methylcellulose (MC).
[5] abbreviates: dose: 3.75 mg/kg/injection, schedule: Q01DX Z (ip), vehicle: carboxymethylcellulose (CMC).
The mark [6] stands for this setting: dose: 7.5 mg/kg/injection, schedule: Q01DX Z (ip), vehicle: carboxymethylcellulose (CMC).
Where [7] appears, read: dose: 50.0 mg/kg/injection, schedule: Q01DX Z (ip), vehicle: carboxymethylcellulose (CMC).

Values joined by “and” are separate entries in the source; they are usually repeats but may differ in a detail not shown here. Identical values can stand only once. Toxic doses and inconclusive results are not listed. Starred links: 1 amine or outer side, 2 acyl side, 3 side chain; linkers in the order of their positions; H or OH if unused. Positions of bridges follow the written chain, without caps; N, C: chain ends. Non-standard residues stand in square brackets, D forms with d. Residues, ends and D or L forms follow the SMILES beside them. Chains are numbered I, II in the order given. Actinocin(9to1) = Cc1c2oc3c(C)ccc(C(=O)[*:1])c3nc-2c(C(=O)[*:2])c(N)c1=O; aThr = C[C@H](O)[C@H](N)C(=O)O; NMeV = CN[C@H](C(=O)O)C(C)C; Sar = CNCC(=O)O

On to `O=C1C(NC(=O)C2CCCCC2)=C(N2CC2)C(=O)C(NC(=O)C2CCCCC2)=C1N1CC1`, for which the T/C by setting is: (dose: 11.0 mg/kg/injection, schedule: Q01DX010 (ip), vehicle: saline) 89 % of control; (dose: 22.0 mg/kg/injection, schedule: Q01DX010 (ip), vehicle: saline) 101 % of control; under setting [1], 112 % of control; (dose: 44.0 mg/kg/injection, schedule: Q01DX010 (ip), vehicle: saline) 98 % of control; (dose: 50.0 mg/kg/injection, schedule: Q01DX010 (ip), vehicle: saline) 108 % of control; (dose: 88.0 mg/kg/injection, schedule: Q01DX010 (ip), vehicle: saline) 95 % of control. Besides, the T/C is 109 % of control (dose: 100.0 mg/kg/injection, schedule: Q01DX010 (ip), vehicle: saline) and 109 % of control (dose: 200.0 mg/kg/injection, schedule: Q01DX010 (ip), vehicle: saline).
On to `Cc1c2oc3c(C)ccc(C(=O)N[C@@H]4C(=O)N[C@H](C(C)C)C(=O)N5CCC[C@H]5C(=O)N(C)CC(=O)N(C)[C@@H](C(C)C)C(=O)O[C@H]4C)c3nc-2c(C(=O)N[C@@H]2C(=O)N[C@H](C(C)C)C(=O)N3CCC[C@H]3C(=O)N(C)CC(=O)N(C)[C@@H](C(C)C)C(=O)O[C@H]2C)c(N)c1=O` (I: [aThr][dV]P[Sar][NMeV] / II: [aThr][dV]P[Sar][NMeV]; ester I:1-I:C, II:1-II:C; linker I:N-II:N via Actinocin(9to1)), for which the T/C was 157 % of control (dose: 12.0 micrograms/kg/injection, schedule: Q01DX Z (ip), vehicle: saline); 103 % of control (dose: 12.5 micrograms/kg/injection, schedule: Q01DX Z (ip), vehicle: saline); 92 % of control and 104 % of control (dose: 32.0 micrograms/kg/injection, schedule: Q01DX Z (ip), vehicle: saline); 114 % of control and 117 % of control (dose: 50.0 micrograms/kg/injection, schedule: Q01DX Z (ip), vehicle: saline); 98 % of control and 104 % of control (dose: 63.0 micrograms/kg/injection, schedule: Q01DX Z (ip), vehicle: saline); 117 % of control and 101 % of control (dose: 125.0 micrograms/kg/injection, schedule: Q01DX Z (ip), vehicle: saline).
As to `CCN(CC)c1ccc2cc3ccc(=[N+](CC)CC)cc-3oc2c1`, the T/C is, setting by setting: (dose: 1.0 mg/kg/injection, schedule: Q01DX010 (ip), vehicle: saline) 100 % of control; (dose: 2.0 mg/kg/injection, schedule: Q01DX010 (ip), vehicle: saline) 91 % of control; under setting [2], 98 % of control.
In the case of `O=C(Nc1ccc(C2=NCCN2)cc1)c1ccc(C(=O)Nc2ccc(C3=NCCN3)cc2)cc1`, the T/C (dose: 4.0 mg/kg/injection, schedule: Q01DX010 (ip), vehicle: other) is 194 % of control and 204 % of control; the T/C (dose: 8.0 mg/kg/injection, schedule: Q01DX010 (ip), vehicle: other) was 244 % of control and 279 % of control; the T/C (dose: 10.0 mg/kg/injection, schedule: Q01DX Z (ip), vehicle: methylcellulose (MC)) is 124 % of control and 105 % of control; the T/C (dose: 16.0 mg/kg/injection, schedule: Q01DX010 (ip), vehicle: other) is 218 % of control and 219 % of control; the T/C (dose: 20.0 mg/kg/injection, schedule: Q01DX Z (ip), vehicle: methylcellulose (MC)) was 120 % of control and 106 % of control; the T/C (dose: 32.0 mg/kg/injection, schedule: Q01DX010 (ip), vehicle: other) is 231 % of control and 239 % of control. The T/C is 117 % of control (dose: 40.0 mg/kg/injection, schedule: Q01DX Z (ip), vehicle: methylcellulose (MC)); 222 % of control and 242 % of control (dose: 64.0 mg/kg/injection, schedule: Q01DX010 (ip), vehicle: other).
As to `O[C@H](CN1CC1)[C@@H](O)CN1CC1`, the T/C (dose: 0.01 mg/kg/injection, schedule: Q01DX Z (ip), vehicle: saline) was 99 % of control; the T/C (dose: 0.02 mg/kg/injection, schedule: Q01DX Z (ip), vehicle: saline) was 105 % of control; the T/C (dose: 0.37 mg/kg/injection, schedule: Q01DX Z (ip), vehicle: saline) was 151 % of control.
With `O=C(CCBr)N1CCN(C(=O)CCBr)CC1`, the T/C is 86 % of control under setting [3]; 90 % of control under setting [4]; 100 % of control (dose: 6.3 mg/kg/injection, schedule: Q01DX Z (ip), vehicle: methylcellulose (MC)).
With `CC(CCC(C)OS(C)(=O)=O)OS(C)(=O)=O` (stereo not drawn), the T/C is, setting by setting: under setting [5], 86 % of control; (dose: 5.0 mg/kg/injection, schedule: Q01DX Z (ip), vehicle: carboxymethylcellulose (CMC)) 114 % of control; under setting [6], 106 % of control; (dose: 10.0 mg/kg/injection, schedule: Q01DX Z (ip), vehicle: carboxymethylcellulose (CMC)) 91 % of control; (dose: 12.5 mg/kg/injection, schedule: Q01DX Z (ip), vehicle: carboxymethylcellulose (CMC)) 98 % of control; under setting [7], 88 % of control. The T/C (dose: 75.0 mg/kg/injection, schedule: Q01DX Z (ip), vehicle: carboxymethylcellulose (CMC)) is 98 % of control.
As for `N=C(N)c1ccc(Nc2ccc(C(=N)N)cc2)cc1`, the T/C (dose: 1.5 mg/kg/injection, schedule: Q01DX010 (ip), vehicle: saline) is 101 % of control; the T/C (dose: 3.0 mg/kg/injection, schedule: Q01DX010 (ip), vehicle: saline) was 97 % of control; the T/C (dose: 6.0 mg/kg/injection, schedule: Q01DX010 (ip), vehicle: saline) was 102 % of control; the T/C (dose: 7.5 mg/kg/injection, schedule: Q01DX Z (ip), vehicle: water) was 98 % of control; the T/C (dose: 12.0 mg/kg/injection, schedule: Q01DX010 (ip), vehicle: saline) is 91 % of control; the T/C (dose: 12.5 mg/kg/injection, schedule: Q01DX Z (ip), vehicle: water) is 86 % of control.
On to `O=c1[nH]c(=O)n(C2CC(O)C(CO)O2)cc1Br` (stereo not drawn), for which the T/C reads like this: under setting [5], 93 % of control; under setting [6], 120 % of control; (dose: 15.0 mg/kg/injection, schedule: Q01DX Z (ip), vehicle: carboxymethylcellulose (CMC)) 113 % of control; (dose: 30.0 mg/kg/injection, schedule: Q01DX Z (ip), vehicle: carboxymethylcellulose (CMC)) 104 % of control.
As to `C[N+](C)(C)c1ncnc2nc[nH]c12`, where the note is “dose: 15.0 mg/kg/injection, schedule: Q01DX010 (ip), vehicle: saline”, the T/C was 94 % of control.
Turning to `CC/C(=C(/CC)c1ccc(O)cc1)c1ccc(O)cc1`, the T/C runs as follows: (dose: 12.5 mg/kg/injection, schedule: Q01DX010 (ip), vehicle: saline) 94 % of control; (dose: 12.5 mg/kg/injection, schedule: Q01DX010 (sc), vehicle: steriod suspending solution) 92 % of control; under setting [1], 94 % of control; (dose: 50.0 mg/kg/injection, schedule: Q01DX010 (sc), vehicle: steriod suspending solution) 89 % of control; (dose: 100.0 mg/kg/injection, schedule: Q01DX010 (sc), vehicle: steriod suspending solution) 86 % of control and 87 % of control.
As to `NC(=O)N(CCCl)N=O`, the T/C was 158 % of control (dose: 0.5 mg/kg/injection, schedule: Q01DX010 (ip), vehicle: saline) and 104 % of control under setting [2].
Regarding `CCC(=O)O[C@H]1CC[C@H]2[C@@H]3CCC4=CC(=O)CC[C@]4(C)[C@H]3CC[C@]12C`, the T/C is, setting by setting: (dose: 125.0 mg/kg/injection, schedule: Q01DX Z (sc), vehicle: steriod suspending solution) 100 % of control and 102 % of control; (dose: 250.0 mg/kg/injection, schedule: Q01DX Z (sc), vehicle: steriod suspending solution) 102 % of control; (dose: 1000.0 mg/kg/injection, schedule: Q01DX Z (sc), vehicle: steriod suspending solution) 86 % of control and 89 % of control.
With `c1ccc(CNc2ncnc3[nH]ncc23)cc1`, the T/C was 94 % of control and 103 % of control (dose: 8.0 mg/kg/injection, schedule: Q01DX010 (ip), vehicle: saline); 96 % of control and 100 % of control (dose: 16.0 mg/kg/injection, schedule: Q01DX010 (ip), vehicle: saline); 91 % of control (dose: 32.0 mg/kg/injection, schedule: Q01DX010 (ip), vehicle: saline).
For the molecule `O=C1N(Cl)C(=O)C(c2ccc(Cl)cc2)(c2ccc(Cl)cc2)N1Cl`, the T/C is, setting by setting: (dose: 0.8 mg/kg/injection, schedule: Q01DX Z (ip), vehicle: methylcellulose (MC)) 90 % of control; under setting [3], 90 % of control; under setting [4], 86 % of control and 98 % of control.
As to `N#CCSc1ncnc2nc[nH]c12`, the T/C by setting is: (dose: 25.0 mg/kg/injection, schedule: Q01DX Z (ip), vehicle: carboxymethylcellulose (CMC)) 101 % of control; under setting [7], 120 % of control; (dose: 100.0 mg/kg/injection, schedule: Q01DX Z (ip), vehicle: carboxymethylcellulose (CMC)) 111 % of control.

The record behind these values is PubChem BioAssay AID284 (DTP/NCI, 2004).
